The source of these data is patent US10479780B2, “Aminopyrazole derivatives” (Chugai Seiyaku Kabushiki Kaisha, priority 2015, dated 2019).

What all share (type): biochemical
The target in one experiment is T1, human Src enzyme (Homo sapiens, UniProt P12931).
T1 construct: purchased Carna Biosciences, Inc. 08-173
In words: Src enzyme inhibitory activity (time-resolved fluorometry, biotinylated peptide phosphorylation). As to conditions: biotinylated peptide phosphorylation, read-out: SRC_IC50. Summed up: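 Compounds were tested for blocking tyrosine phosphorylation of a biotinylated peptide substrate by recombinant human Src. Phosphorylated product was quantified by time-resolved fluorometry using europium cryptate and XL665 conjugates, and IC50 was calculated against the compound-free control.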

The target in a further experiment is T2, human Lck enzyme (Homo sapiens, UniProt P06239).
T2 construct: purchased Carna Biosciences, Inc. 08-170
T2 sequence (P06239 whole entry): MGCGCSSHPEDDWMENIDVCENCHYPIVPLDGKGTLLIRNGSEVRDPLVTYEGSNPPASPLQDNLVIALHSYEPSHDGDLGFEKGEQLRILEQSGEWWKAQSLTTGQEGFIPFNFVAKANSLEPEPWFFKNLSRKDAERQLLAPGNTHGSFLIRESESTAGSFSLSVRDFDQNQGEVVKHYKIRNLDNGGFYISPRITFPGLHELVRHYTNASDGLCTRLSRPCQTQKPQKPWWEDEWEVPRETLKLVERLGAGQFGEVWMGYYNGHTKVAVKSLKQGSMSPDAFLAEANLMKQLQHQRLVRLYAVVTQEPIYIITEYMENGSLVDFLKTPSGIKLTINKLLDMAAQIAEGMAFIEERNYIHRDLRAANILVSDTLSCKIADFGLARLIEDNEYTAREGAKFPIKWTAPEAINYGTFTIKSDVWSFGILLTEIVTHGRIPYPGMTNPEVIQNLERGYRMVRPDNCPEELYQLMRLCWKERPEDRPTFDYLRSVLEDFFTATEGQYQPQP
As to the kind of experiment: Lck enzyme inhibitory activity (time-resolved fluorometry, biotinylated peptide phosphorylation). As to conditions: biotinylated peptide phosphorylation, read-out: LCK_IC50. A digest of the protocol:
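Readout pairs a europium cryptate-labelled anti-phosphotyrosine antibody with XL665-streptavidin, measured by time-resolved fluorescence. IC50 derived from percent inhibition against untreated controls.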

In another experiment the target is T3, human Yes1 enzyme (Homo sapiens, UniProt P07947).
T3 construct: made in house
T3 sequence (P07947 whole entry): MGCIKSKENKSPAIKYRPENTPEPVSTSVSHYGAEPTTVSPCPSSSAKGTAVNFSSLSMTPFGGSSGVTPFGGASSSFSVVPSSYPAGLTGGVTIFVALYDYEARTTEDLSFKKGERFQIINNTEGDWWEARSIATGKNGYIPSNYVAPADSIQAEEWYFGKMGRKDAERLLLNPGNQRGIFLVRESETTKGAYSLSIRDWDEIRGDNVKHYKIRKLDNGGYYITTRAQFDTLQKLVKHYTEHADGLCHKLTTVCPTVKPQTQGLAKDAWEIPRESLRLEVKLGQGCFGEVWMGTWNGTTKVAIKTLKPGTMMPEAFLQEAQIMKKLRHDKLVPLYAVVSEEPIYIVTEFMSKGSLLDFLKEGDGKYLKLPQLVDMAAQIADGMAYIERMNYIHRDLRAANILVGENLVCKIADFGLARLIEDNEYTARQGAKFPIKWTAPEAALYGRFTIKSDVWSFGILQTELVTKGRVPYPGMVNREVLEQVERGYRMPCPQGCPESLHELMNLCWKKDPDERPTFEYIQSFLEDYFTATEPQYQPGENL
In words: Yes1 enzyme inhibitory activity (time-resolved fluorometry, biotinylated peptide phosphorylation). The note with it: biotinylated peptide phosphorylation, read-out: YES_IC50. Summed up:
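Inhibition was expressed against a compound-free control to give IC50, using TR-FRET read-out (Eu-cryptate anti-pTyr antibody, streptavidin-XL665).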

Each structure is given as a SMILES string.

T1 sequence (P12931 whole entry): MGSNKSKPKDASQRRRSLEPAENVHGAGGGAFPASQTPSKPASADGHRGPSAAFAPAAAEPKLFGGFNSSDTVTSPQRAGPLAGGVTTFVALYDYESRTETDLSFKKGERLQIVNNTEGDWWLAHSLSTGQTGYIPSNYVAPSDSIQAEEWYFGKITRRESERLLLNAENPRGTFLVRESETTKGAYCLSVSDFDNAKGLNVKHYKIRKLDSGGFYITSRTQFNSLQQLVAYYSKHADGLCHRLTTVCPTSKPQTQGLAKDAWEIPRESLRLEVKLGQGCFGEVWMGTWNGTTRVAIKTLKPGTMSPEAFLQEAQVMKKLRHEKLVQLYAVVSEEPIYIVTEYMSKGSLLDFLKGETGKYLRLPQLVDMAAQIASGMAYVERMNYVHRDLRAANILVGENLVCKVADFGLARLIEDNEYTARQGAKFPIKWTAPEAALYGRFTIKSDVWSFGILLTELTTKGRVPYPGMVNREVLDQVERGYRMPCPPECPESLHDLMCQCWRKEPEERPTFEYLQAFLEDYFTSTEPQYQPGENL

In the case of `Cc1cc(Oc2ccccc2F)ccc1-n1ncc(C(=O)c2cc3cc(OC(F)F)c(-n4c(C)cc(=O)[nH]c4=O)cc3[nH]2)c1N` [Example 4-23-031, 1-[2-[5-amino-1-[4-(2-fluorophenoxy)-2-methylphenyl]pyrazole-4-carbonyl]-5-(difluoromethoxy)-1H-indol-6-yl]-6-methylpyrimidine-2,4-dione], the IC50 stood at 14 nM at human Src enzyme, 5.2 nM at human Lck enzyme and 1.5 nM at human Yes1 enzyme.
For the compound `Cc1cc(Oc2c(F)cccc2F)ncc1-n1ncc(C(=O)c2cc3cc(OCC(F)F)c(N4C(=O)NC(C)(C)C4=O)cc3[nH]2)c1N` [Example 4-23-032, 3-{2-{5-amino-1-[6-(2,6-difluorophenoxy)-4-methylpyridin-3-yl]pyrazole-4-carbonyl}-5-(2,2-difluoroethoxy)-1H-indol-6-yl}-5,5-dimethylimidazolidine-2,4-dione], the IC50 came out at 17 nM at human Src enzyme, 2.5 nM on human Lck enzyme and 0.58 nM at human Yes1 enzyme.
For the compound `Cc1cc(Oc2ccccc2F)ccc1-n1ncc(C(=O)c2cc3cc(OCC(F)F)c(N4C(=O)NC(C)(C)C4=O)cc3[nH]2)c1N` [Example 4-23-033, 3-[2-[5-amino-1-[4-(2-fluorophenoxy)-2-methylphenyl]pyrazole-4-carbonyl]-5-(2,2-difluoroethoxy)-1H-indol-6-yl]-5,5-dimethylimidazolidine-2,4-dione], the IC50 at human Src enzyme came out at 6.1 nM; at human Lck enzyme, 2.1 nM; on human Yes1 enzyme it was 0.5 nM.
In the same order, the values of `Cc1cc(Oc2c(F)cccc2F)ncc1-n1ncc(C(=O)c2cc3cc(OC(F)F)c(N4C(=O)NC(C)(C)C4=O)cc3[nH]2)c1N` [Example 4-23-034, 3-[2-[5-amino-1-[6-(2,6-difluorophenoxy)-4-methylpyridin-3-yl]pyrazole-4-carbonyl]-5-(difluoromethoxy)-1H-indol-6-yl]-5,5-dimethylimidazolidine-2,4-dione] are 54 nM, 6.7 nM and 1.5 nM.
In the same order, the values of `Cc1cc(Oc2ccccc2F)ccc1-n1ncc(C(=O)c2cc3cc(OC(F)F)c(N4C(=O)NC(C)(C)C4=O)cc3[nH]2)c1N` [Example 4-23-035, 3-[2-[5-amino-1-[4-(2-fluorophenoxy)-2-methylphenyl]pyrazole-4-carbonyl]-5-(difluoromethoxy)-1H-indol-6-yl]-5,5-dimethylimidazolidine-2,4-dione] are 30 nM, 7 nM and 0.63 nM.
Consider `Cc1cc(Oc2c(F)cccc2F)ncc1-n1ncc(C(=O)c2cc3cc(OCC(F)F)c(N4C(=O)C(C)(C)NC4=S)cc3[nH]2)c1N` [Example 4-23-036, 3-{2-{5-amino-1-[6-(2,6-difluorophenoxy)-4-methylpyridin-3-yl]pyrazole-4-carbonyl}-5-(2,2-difluoroethoxy)-1H-indol-6-yl}-5,5-dimethyl-2-sulfanylideneimidazolidin-4-one], for which the IC50 at human Src enzyme came out at 31 nM; on human Lck enzyme, 6.4 nM; at human Yes1 enzyme it was 1 nM.
As for `Cc1cc(Oc2ccccc2F)ccc1-n1ncc(C(=O)c2cc3cc(OCC(F)F)c(N4C(=O)C(C)(C)NC4=S)cc3[nH]2)c1N` [Example 4-23-037, 3-[2-[5-amino-1-[4-(2-fluorophenoxy)-2-methylphenyl]pyrazole-4-carbonyl]-5-(2,2-difluoroethoxy)-1H-indol-6-yl]-5,5-dimethyl-2-sulfanylideneimidazolidin-4-one], the IC50 at human Src enzyme came out at 12 nM; on human Lck enzyme it was 6.7 nM; on human Yes1 enzyme, 0.76 nM.
Regarding `Cc1cc(Oc2c(F)cccc2F)ncc1-n1ncc(C(=O)c2cc3cc(OC(F)F)c(N4C(=O)C(C)(C)NC4=S)cc3[nH]2)c1N` [Example 4-23-038, 3-[2-[5-amino-1-[6-(2,6-difluorophenoxy)-4-methylpyridin-3-yl]pyrazole-4-carbonyl]-5-(difluoromethoxy)-1H-indol-6-yl]-5,5-dimethyl-2-sulfanylideneimidazolidin-4-one], the IC50 was 71 nM at human Src enzyme, 10 nM at human Lck enzyme and 1.2 nM at human Yes1 enzyme.
As to `Cc1cc(Oc2ccccc2F)ccc1-n1ncc(C(=O)c2cc3cc(OC(F)F)c(N4C(=O)C(C)(C)NC4=S)cc3[nH]2)c1N` [Example 4-23-039, 3-[2-[5-amino-1-[4-(2-fluorophenoxy)-2-methylphenyl]pyrazole-4-carbonyl]-5-(difluoromethoxy)-1H-indol-6-yl]-5,5-dimethyl-2-sulfanylideneimidazolidin-4-one], the IC50 at human Src enzyme was 60 nM; on human Lck enzyme it was 16 nM; at human Yes1 enzyme, 0.81 nM.
Consider `Cc1cc(Oc2ccccc2F)ccc1-n1ncc(C(=O)c2cc3cc(OC(F)F)c(NS(=O)(=O)C4CC4)cc3[nH]2)c1N` [Example 4-24-001, N-[2-[5-amino-1-[4-(2-fluorophenoxy)-2-methylphenyl]pyrazole-4-carbonyl]-5-(difluoromethoxy)-1H-indol-6-yl]cyclopropanesulfonamide], for which the IC50 on human Src enzyme was found to be 110 nM; on human Lck enzyme it was 36 nM; on human Yes1 enzyme, 3.6 nM.
With `Cc1cc(Oc2ccccc2F)ccc1-n1ncc(C(=O)c2cc3cc(OC(F)F)c(NS(C)(=O)=O)cc3[nH]2)c1N` [Example 4-24-002, N-[2-[5-amino-1-[4-(2-fluorophenoxy)-2-methylphenyl]pyrazole-4-carbonyl]-5-(difluoromethoxy)-1H-indol-6-yl]methanesulfonamide], the IC50 on human Src enzyme was 35 nM; on human Lck enzyme, 10 nM; on human Yes1 enzyme, 1.6 nM.
Regarding `Cc1cc(Oc2ccccc2F)ccc1-n1ncc(C(=O)c2cc3cc(OC(F)F)c(NS(=O)(=O)CCCF)cc3[nH]2)c1N` [Example 4-24-003, N-[2-[5-amino-1-[4-(2-fluorophenoxy)-2-methylphenyl]pyrazole-4-carbonyl]-5-(difluoromethoxy)-1H-indol-6-yl]-3-fluoropropane-1-sulfonamide], the IC50 on human Src enzyme stood at 55 nM; on human Lck enzyme it was 25 nM; at human Yes1 enzyme it was 2.7 nM.
As to `Cc1cc(Oc2ccccc2F)ccc1-n1ncc(C(=O)c2cc3cc(OC(F)F)c(NS(=O)(=O)CCC(F)F)cc3[nH]2)c1N` [Example 4-24-004, N-[2-[5-amino-1-[4-(2-fluorophenoxy)-2-methylphenyl]pyrazole-4-carbonyl]-5-(difluoromethoxy)-1H-indol-6-yl]-3,3-difluoropropane-1-sulfonamide], the IC50 is 41 nM on human Src enzyme, 17 nM at human Lck enzyme and 3.1 nM at human Yes1 enzyme.
Take `Cc1cc(Oc2ccccc2F)cc(F)c1-n1ncc(C(=O)c2cc3cc(OC(F)F)c(NS(=O)(=O)C4CC4)cc3[nH]2)c1N` [Example 4-24-005, N-[2-[5-amino-1-[2-fluoro-4-(2-fluorophenoxy)-6-methylphenyl]pyrazole-4-carbonyl]-5-(difluoromethoxy)-1H-indol-6-yl]cyclopropanesulfonamide]: the IC50 is 240 nM on human Src enzyme, 47 nM at human Lck enzyme and 4.7 nM at human Yes1 enzyme.
As for `Cc1cc(Oc2ccccc2F)cc(F)c1-n1ncc(C(=O)c2cc3cc(OC(F)F)c(NS(=O)(=O)CCCF)cc3[nH]2)c1N` [Example 4-24-006, N-[2-[5-amino-1-[2-fluoro-4-(2-fluorophenoxy)-6-methylphenyl]pyrazole-4-carbonyl]-5-(difluoromethoxy)-1H-indol-6-yl]-3-fluoropropane-1-sulfonamide], the IC50 is 200 nM at human Src enzyme, 51 nM on human Lck enzyme and 4.5 nM at human Yes1 enzyme.
Turning to `Cc1cc(Oc2ccccc2F)ncc1-n1ncc(C(=O)c2cc3cc(OC(F)F)c(NS(=O)(=O)C4CC4)cc3[nH]2)c1N` [Example 4-24-007, N-[2-[5-amino-1-[6-(2-fluorophenoxy)-4-methylpyridin-3-yl]pyrazole-4-carbonyl]-5-(difluoromethoxy)-1H-indol-6-yl]cyclopropanesulfonamide], the IC50 on human Src enzyme is 230 nM; at human Lck enzyme it was 61 nM; on human Yes1 enzyme, 4 nM.
For `Cc1cc(Oc2ccccc2F)ncc1-n1ncc(C(=O)c2cc3cc(OC(F)F)c(NS(C)(=O)=O)cc3[nH]2)c1N` [Example 4-24-008, N-[2-[5-amino-1-[6-(2-fluorophenoxy)-4-methylpyridin-3-yl]pyrazole-4-carbonyl]-5-(difluoromethoxy)-1H-indol-6-yl]methanesulfonamide], the IC50 worked out at 99 nM at human Src enzyme, 19 nM on human Lck enzyme and 2.1 nM at human Yes1 enzyme.
Take `Cc1cc(Oc2ccccc2F)ncc1-n1ncc(C(=O)c2cc3cc(OC(F)F)c(NS(=O)(=O)CCCF)cc3[nH]2)c1N` [Example 4-24-009, N-[2-[5-amino-1-[6-(2-fluorophenoxy)-4-methylpyridin-3-yl]pyrazole-4-carbonyl]-5-(difluoromethoxy)-1H-indol-6-yl]-3-fluoropropane-1-sulfonamide]: the results for the IC50 on human Src enzyme, on human Lck enzyme and at human Yes1 enzyme were 120 nM, 39 nM and 3.6 nM, respectively.
For the compound `Cc1cc(Oc2c(F)cccc2F)ncc1-n1ncc(C(=O)c2cc3cc(OC(F)F)c(NS(=O)(=O)C4CC4)cc3[nH]2)c1N` [Example 4-24-010, N-[2-[5-amino-1-[6-(2,6-difluorophenoxy)-4-methylpyridin-3-yl]pyrazole-4-carbonyl]-5-(difluoromethoxy)-1H-indol-6-yl]cyclopropanesulfonamide], the results for the IC50 at human Src enzyme, at human Lck enzyme and at human Yes1 enzyme were 150 nM, 36 nM and 4.3 nM, respectively.
